The target of data set [1] is T1, Sterol O-acyltransferase 1 (Homo sapiens, UniProt P35610).
T1 sequence (P35610 whole entry): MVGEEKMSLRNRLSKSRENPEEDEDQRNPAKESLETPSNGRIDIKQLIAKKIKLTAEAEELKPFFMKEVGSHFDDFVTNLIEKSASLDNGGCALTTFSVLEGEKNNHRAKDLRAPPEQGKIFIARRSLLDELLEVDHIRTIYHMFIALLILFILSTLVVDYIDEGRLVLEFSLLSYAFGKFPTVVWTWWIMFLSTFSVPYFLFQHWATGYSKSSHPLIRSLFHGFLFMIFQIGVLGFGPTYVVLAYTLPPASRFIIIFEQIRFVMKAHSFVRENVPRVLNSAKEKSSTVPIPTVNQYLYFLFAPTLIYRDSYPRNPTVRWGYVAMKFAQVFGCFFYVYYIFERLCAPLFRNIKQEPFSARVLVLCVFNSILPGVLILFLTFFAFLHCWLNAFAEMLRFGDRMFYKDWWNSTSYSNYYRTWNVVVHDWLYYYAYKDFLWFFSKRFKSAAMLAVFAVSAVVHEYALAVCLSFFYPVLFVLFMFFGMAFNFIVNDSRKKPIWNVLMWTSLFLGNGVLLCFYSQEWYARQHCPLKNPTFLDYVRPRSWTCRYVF
Description: Inhibition of human ACAT1.

Data set [2] in a line: Thermodynamic solubility of the compound after 24 hrs at pH 7.4. The format is physicochemical. The conditions noted are these: buffer, read-out: Therm_solubility.
Data set [3] addresses T2, Diacylglycerol O-acyltransferase 1 (Homo sapiens, UniProt O75907).
T2 sequence (O75907 whole entry): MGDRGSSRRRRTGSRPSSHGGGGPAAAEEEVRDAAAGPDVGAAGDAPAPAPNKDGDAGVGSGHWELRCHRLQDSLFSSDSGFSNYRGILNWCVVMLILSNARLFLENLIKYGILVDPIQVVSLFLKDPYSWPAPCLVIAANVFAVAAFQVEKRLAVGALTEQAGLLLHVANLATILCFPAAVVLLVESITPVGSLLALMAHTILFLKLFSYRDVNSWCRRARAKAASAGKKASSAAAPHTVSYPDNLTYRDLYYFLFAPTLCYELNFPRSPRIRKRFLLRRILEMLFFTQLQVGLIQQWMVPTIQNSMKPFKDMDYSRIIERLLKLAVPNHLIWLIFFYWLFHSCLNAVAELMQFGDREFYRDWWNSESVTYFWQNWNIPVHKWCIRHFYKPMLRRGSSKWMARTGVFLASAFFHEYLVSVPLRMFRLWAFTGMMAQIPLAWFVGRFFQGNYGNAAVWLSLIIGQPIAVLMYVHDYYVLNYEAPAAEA
Nature of the data set: Inhibition of human DGAT1.

Data set [4] can be described thus: Lipophilicity, logD of the compound. The format is physicochemical. The conditions noted are these: octanol/water.
Data set [5] can be described thus: Apparent permeability in MDCK cells assessed as permeability from apical to basolateral side. The conditions noted are these: dog. It counts as ADME, cell-based, Canis lupus familiaris.
The species named for a further data set is Rattus norvegicus. Nature of the data set: Unbound clearance in rat. The format is ADME, organism-based. The conditions noted are these: in vivo.
The species named for another data set is Canis familiaris. Description: Unbound clearance in dog. The format is ADME, organism-based, Canis lupus familiaris. The conditions noted are these: in vivo.
A short description of data set [6]: Clearance in dog. It counts as ADME, organism-based, Canis lupus familiaris. The conditions noted are these: in vivo.
Data set [7] is described as follows: Clearance in rat. It counts as ADME, organism-based. The conditions noted are these: in vivo.
The nature of data set [8]: Oral bioavailability in dog. It counts as ADME, organism-based, Canis lupus familiaris. The conditions noted are these: in vivo.
A short description of data set [9]: Oral bioavailability in rat. The format is ADME, organism-based. The conditions noted are these: in vivo.
In a further data set the test system is Hepatocyte. Description: Intrinsic clearance in human hepatocytes. The format is ADME, cell-based.
In the next data set the test system is Plasma. Description: Fraction unbound in rat plasma. The format is ADME, cell-free.

The structures appear in SMILES notation. Values after ≈ are worked out from the molar mass of the structure shown.

Usually IC50 stands for the point on the concentration scale where inhibition reaches its midpoint. The term logD denotes lipophilicity at a set pH, counting ionised and neutral species. The low end stands for lower lipophilicity, the high end for higher lipophilicity. One may read the Papp A→B as the apparent permeability from the apical to the basolateral side of a cell layer. The term clearance denotes the rate of elimination divided by the concentration. Read a high clearance as efficient removal.

With `O=C(Nc1ccc(O[C@H]2CC[C@@H](C(=O)O)CC2)cc1)c1nnc(Nc2ccc(F)c(F)c2)o1`, the IC50 in data set [1] is 1100 nM; in data set [3] it was 4 nM. Moreover, in data set [2], the solubility thermodynamic at 24 h is 3 µM (≈ 1.38 µg/mL).
Regarding `O=C(O)c1ccc(Oc2ccc(NC(=O)c3nnc(Nc4ccc(F)c(F)c4)o3)cn2)cc1`, the IC50 stood at 5600 nM in [1] and 5 nM in data set [3]. In data set [4], the logD was determined as 1.4. Moreover, the Papp A→B in [5] was determined as 1.1 ×10⁻⁶ cm/s. In addition, the solubility thermodynamic at 24 h in [2] came out at 23 µM (≈ 10.4 µg/mL).
In turn, `O=C(Nc1ccc(O[C@H]2CC[C@@H](C(=O)O)CC2)c(F)c1)c1nnc(Nc2cc(F)c(F)cc2F)o1` had a logD in [4] of 2.3. Moreover, the solubility thermodynamic at 24 h in data set [2] was 11 µM (≈ 5.44 µg/mL).
Regarding `O=C(Nc1ccc(O[C@H]2CC[C@@H](C(=O)O)CC2)nc1F)c1nnc(Nc2cc(F)c(F)cc2F)o1`, the CL free is 300 mL/min/kg in the data set listed under Rattus norvegicus and 200 mL/min/kg in the data set listed under Canis familiaris. The half-maximal inhibitory concentration (IC50) in data set [1] was found to be 1100 nM; in data set [3] it was 4 nM. Further, the logD in [4] turned out to be 1.8. Also, the clearance worked out at 4.6 mL/min/kg in data set [6] and 1.8 mL/min/kg in data set [7]. Further, the bioavailability in data set [8] was determined as 61%; in data set [9], 100%. In [5], the Papp A→B was found to be 15 ×10⁻⁶ cm/s. Moreover, the solubility thermodynamic at 24 h in [2] was determined as 2200 µM (≈ 1090 µg/mL). Further, in the data set with Hepatocyte, the “Intrinsic clearance (CLint)” value is under 2 µL/min/mg.
As to `O=C(Nc1cnc(O[C@H]2CC[C@@H](C(=O)O)CC2)cc1F)c1nnc(Nc2cc(F)c(F)cc2F)o1`, the IC50 turned out to be 1300 nM in data set [1] and 6 nM in data set [3]. This compound registered a logD in [4] of 1.6. Besides, the solubility thermodynamic at 24 h in data set [2] came to 240 µM (≈ 119 µg/mL).
On to `O=C(Nc1ccc(O[C@H]2CC[C@@H](C(=O)O)CC2)nc1)c1nnc(Nc2ccc(F)c(F)c2)o1`, for which the CL free in the data set filed under Rattus norvegicus is 740 mL/min/kg; in the data set filed under Canis familiaris, 130 mL/min/kg. For the same compound, the IC50 in data set [1] was determined as 6500 nM; in data set [3], 5 nM. Besides, in data set [4], the logD turned out to be 1.9. For the same compound, the clearance was 4.7 mL/min/kg in data set [6] and 7.4 mL/min/kg in data set [7]. Besides, the bioavailability in data set [8] was determined as 60%; in data set [9], 33%. Further, the Papp A→B in [5] amounted to 2 ×10⁻⁶ cm/s. In data set [2], the solubility thermodynamic at 24 h amounted to 49 µM (≈ 22.5 µg/mL). Moreover, the “Intrinsic clearance (CLint)” value in the data set with Hepatocyte is under 2 µL/min/mg.
Take `O=C(Nc1ccc(O[C@H]2CC[C@H](C(=O)O)CC2)cc1)c1nnc(Nc2cc(F)c(F)cc2F)o1`: the logD in [4] is 1.9. In addition, the solubility thermodynamic at 24 h in [2] was determined as 27 µM (≈ 12.9 µg/mL).
Turning to `N#Cc1ccc(Nc2nnc(C(=O)Nc3ccc(O[C@H]4CC[C@@H](C(=O)O)CC4)cc3)o2)cc1`, the half-inhibitory concentration (IC50) in [1] amounted to 14300 nM; in data set [3] it was 18 nM. In addition, the logD in data set [4] came to 1.4.
As to `O=C(Nc1ccc(O[C@H]2CC[C@@H](C(=O)O)CC2)cc1)c1nnc(Nc2ccc(F)cc2)o1`, the IC50 in data set [1] turned out to be 1800 nM; in [3], 5 nM. The same compound yielded a logD in data set [4] of 1.2. For the same compound, the solubility thermodynamic at 24 h in [2] worked out at 5 µM (≈ 2.2 µg/mL).
In the data set with Plasma, `O=C(O)c1cccc(Oc2ccc(NC(=O)c3nnc(Nc4ccc(F)c(F)c4)o3)cc2)c1` gave a Fu of under 0.01%. This compound also returned a logD in data set [4] of 2.3. Also, the solubility thermodynamic at 24 h in data set [2] is 6 µM (≈ 2.71 µg/mL). The “Intrinsic clearance (CLint)” value in the data set on Hepatocyte was under 22 µL/min/mg.
As to `O=C(Nc1ccc(O[C@H]2CC[C@@H](C(=O)O)CC2)cc1)c1nnc(Nc2cc(F)c(F)cc2F)o1`, the CL free in the data set filed under Rattus norvegicus is 470 mL/min/kg; in the data set filed under Canis familiaris it was 920 mL/min/kg. In the data set with Plasma, this compound showed a Fu of 0.4%. This compound yielded a logD in data set [4] of 1.9. In addition, the clearance in [6] was determined as 11 mL/min/kg; in [7], 1.1 mL/min/kg. The values for the bioavailability in data set [8] and in [9] were 23% and 115%, respectively. In [5], the Papp A→B amounted to 11 ×10⁻⁶ cm/s. The solubility thermodynamic at 24 h in data set [2] came to 43 µM (≈ 20.5 µg/mL). Besides, the “Intrinsic clearance (CLint)” value in the data set on Hepatocyte is under 2 µL/min/mg.
As for `O=C(Nc1ccc(O[C@H]2CC[C@H](C(=O)O)CC2)cc1F)c1nnc(Nc2cc(F)c(F)cc2F)o1`, the results for the IC50 in data set [1] and in data set [3] were 6500 nM and 15 nM, respectively. This compound returned a logD in data set [4] of 1.8. Further, in data set [2], the solubility thermodynamic at 24 h came to 13 µM (≈ 6.43 µg/mL).
On to `O=C(Nc1ccc(O[C@H]2CC[C@@H](C(=O)O)CC2)nc1F)c1nnc(Nc2ccc(F)c(F)c2)o1`, for which the CL free in the data set filed under Rattus norvegicus was 600 mL/min/kg; in the data set listed under Canis familiaris, 300 mL/min/kg. Moreover, the values for the IC50 in data set [1] and in data set [3] were 4800 nM and 3 nM, respectively. Besides, the logD in data set [4] worked out at 1.9. Also, the clearance in data set [6] was found to be 5.1 mL/min/kg; in data set [7] it was 3.6 mL/min/kg. For the same compound, in data set [5], the Papp A→B came to 16 ×10⁻⁶ cm/s. In addition, the solubility thermodynamic at 24 h in data set [2] turned out to be 15 µM (≈ 7.16 µg/mL). Also, the “Intrinsic clearance (CLint)” value in the data set on Hepatocyte was under 2 µL/min/mg.
`O=C(O)C[C@H]1CC[C@H](c2ccc(NC(=O)c3nnc(Nc4ccc(F)c(F)c4)o3)cc2)CC1`: the solubility thermodynamic at 24 h in data set [2] came out at 2 µM (≈ 0.913 µg/mL).

These data come from ChEMBL document CHEMBL3132759, “Design and synthesis of a novel series of cyclohexyloxy-pyridyl derivatives as inhibitors of diacylglycerol acyl transferase 1” (Medchemcomm, 2013).
